Data published in patent publication US20240082296A1, “TREATMENT OF MUSCLE ATROPHY USING DEXTRAN SULFATE” (TX MEDIC AB, priority 2020, published 2024).
Marks after values point to notes of the source that are not given here.

Tested on: severe traumatic brain injury (sTBI) in rats
Test: HPLC of free amino acids and amino group containing compounds in rat brain after sTBI (Example 4)
Type: in vivo
Procedure: The effects of daily sub-cutaneous injections of dextran sulfate on glutamate excitotoxicity and mitochondrial function after severe traumatic brain injury (sTBI) in rats were evaluated by high-performance liquid chromatography (HPLC) analysis of frozen brain samples.
The experimental protocol used in this study was approved by the Ethical Committee of the Catholic University of Rome, according to international standards and guidelines for animal care. Male Wistar rats of 300-350 g body weight (b.w.) were fed with standard laboratory diet and water ad libitum in a controlled environment.
They were divided into three groups: • 1) n=6 animals subjected to sTBI, with drug administration after 30 minutes and sacrifice at 2 days post-TBI (Acute phase 1) • 2) n=6 animals subjected to severe-TBI, with drug administration after 30 minutes and sacrifice at 7 days post-TBI (Acute phase 2). • 3) n=6 animals subjected to severe-TBI, with drug administration after 3 days and sacrifice at 7 days post-TBI (Chronic phase).
As the anesthetic mixture, animals received 35 mg/kg b.w. ketamine and 0.25 mg/kg b.w. midazolam by i.p. injection. sTBI was induced by dropping a 450 g weight from 2 m height on to the rat head that had been protected by a metal disk previously fixed on the skull, according to the “weight drop” impact acceleration model (Marmarou et al., A new model of diffuse brain injury in rats. Part I: Pathophysiology and biomechanics. J Neurosurg. 1994; 80: 291-300). […] At the end of each period of treatment, rats were anesthetized again and then immediately sacrificed.
The drug treatment was a subcutaneous injection of 0.5 ml of dextran sulfate (Tikomed AB, Viken, Sweden, WO 2016/076780; 15 mg/kg) and administered according to the aforementioned schematic protocol.
An in vivo craniectomy was performed in all animals during anesthesia, after carefully removing the rat's skull, the brain was exposed and removed with a surgical spatula and quickly dropped in liquid nitrogen. After the wet weight (w.w.) determination, tissue preparation was affected as previously disclosed (Tavazzi et al., Cerebral oxidative stress and depression of energy metabolism correlate with severity of diffuse brain injury in rats. Neurosurgery. 2005; 56: 582-589; Vagnozzi et al., Temporal window of metabolic brain vulnerability to concussions: mitochondrial-related impairment-part I. Neurosurgery. 2007; 61: 379-388; Tavazzi et al., Temporal window of metabolic brain vulnerability to concussions: oxidative and nitrosative stresses-part II. Neurosurgery. 2007; 61: 390-395; Amorini et al., Severity of experimental traumatic brain injury modulates changes in concentrations of cerebral free amino acids. J Cell Mol Med. 2017; 21: 530-542.). Briefly, whole brain homogenization was performed with 7 ml of ice-cold, nitrogen-saturated, precipitating solution composed by CH3CN+10 mM KH2PO4, pH 7.40, (3:1; v:v), and using an Ultra-Turrax set at 24,000 rpm/min (Janke & Kunkel, Staufen, Germany). After centrifugation at 20,690×g, for 10 min at 4° C., the clear supernatants were saved, pellets were supplemented with 3 ml of the precipitating solution and homogenized again as described above. A second centrifugation was performed (20,690×g, for 10 min at 4° C.), pellets were saved, supernatants combined with those previously obtained, extracted by vigorous agitation with a double volume of HPLC-grade CHCl3 and centrifuged as above. The upper aqueous phases containing water-soluble low-molecular weight compounds were collected, subjected to chloroform washings for two more times (this procedure allowed the removal of all the organic solvent and of any lipid soluble compound from the buffered tissue extracts), adjusted in volumes with 10 mM KH2PO4, pH 7.40, to have ultimately aqueous 10% tissue homogenates and saved at −80° C. until assayed. […]

[1] = Acute phase 1 (15 mg/kg s.c. 30 min after sTBI, sacrifice 2 days post-TBI)
[2] = Acute phase 2 (15 mg/kg s.c. 30 min after sTBI, sacrifice 7 days post-TBI)
[3] = Chronic phase (15 mg/kg s.c. 3 days after sTBI, sacrifice 7 days post-TBI)

dextran sulfate was tested, and the “cerebral ALA concentration” value [1] was 0.50 ± 0.12^a μmol/g (w.w.), the “cerebral ARG concentration” value [1] was 0.13 ± 0.02^b,d μmol/g (w.w.) and the “cerebral ASN concentration” value [1] was 0.12 ± 0.02^i μmol/g (w.w.). For the same substance, the “cerebral ASP concentration” value [1] was 2.40 ± 0.56^d,i μmol/g (w.w.), the “cerebral CITR concentration” value [1] was 0.018 ± 0.004 µmol/g (w.w.) and the “cerebral GABA concentration” value [1] was 1.43 ± 0.25^a μmol/g (w.w.). For the same substance, the “cerebral GLN concentration” value [1] was 4.78 ± 1.09^a μmol/g (w.w.), the “cerebral GLU concentration” value [1] was 9.81 ± 1.66^i μmol/g (w.w.) and the “cerebral GLY concentration” value [1] was 0.83 ± 0.25^a,c μmol/g (w.w.). The “cerebral HIS concentration” value [1] was 0.068 ± 0.015^b μmol/g (w.w.), the “cerebral ILE concentration” value [1] was 0.038 ± 0.007 µmol/g (w.w.) and the “cerebral L-Cystat concentration” value [1] was 0.185 ± 0.031^b,c,i μmol/g (w.w.). For the same substance, the “cerebral LEU concentration” value [1] was 0.021 ± 0.005^a,c μmol/g (w.w.), the “cerebral LYS concentration” value [1] was 0.236 ± 0.057^b,d,h μmol/g (w.w.) and the “cerebral MET concentration” value [1] was 0.016 ± 0.005^d,j μmol/g (w.w.). For the same substance, the “cerebral ORN concentration” value [1] was 0.014 ± 0.007 µmol/g (w.w.), the “cerebral PHE concentration” value [1] was 0.031 ± 0.011^b,d μmol/g (w.w.) and the “cerebral SAH concentration” value [1] was 0.033 ± 0.008^b,c,j μmol/g (w.w.). The “cerebral SER concentration” value [1] was 0.88 ± 0.25^a μmol/g (w.w.), the “cerebral TAU concentration” value [1] was 4.86 ± 0.85^b μmol/g (w.w.) and the “cerebral THR concentration” value [1] was 0.92 ± 0.29^a μmol/g (w.w.). The “cerebral TRP concentration” value [1] was 0.030 ± 0.007^b,dg,i μmol/g (w.w.), the “cerebral TYR concentration” value [1] was 0.15 ± 0.03 µmol/g (w.w.) and the “cerebral VAL concentration” value [1] was 0.042 ± 0.011 µmol/g (w.w.). The “cerebral ALA concentration” value [2] was 0.52 ± 0.24^a,e μmol/g (w.w.), the “cerebral ARG concentration” value [2] was 0.16 ± 0.03 µmol/g (w.w.) and the “cerebral ASN concentration” value [2] was 0.13 ± 0.03^i μmol/g (w.w.). The “cerebral ASP concentration” value [2] was 2.94 ± 0.98^f,j μmol/g (w.w.), the “cerebral CITR concentration” value [2] was 0.018 ± 0.008 µmol/g (w.w.) and the “cerebral GABA concentration” value [2] was 1.60 ± 0.24^a μmol/g (w.w.). For the same substance, the “cerebral GLN concentration” value [2] was 3.66 ± 0.41 µmol/g (w.w.), the “cerebral GLU concentration” value [2] was 9.93 ± 1.56^e,i μmol/g (w.w.) and the “cerebral GLY concentration” value [2] was 0.71 ± 0.16^f,i μmol/g (w.w.). The “cerebral HIS concentration” value [2] was 0.055 ± 0.019 µmol/g (w.w.), the “cerebral ILE concentration” value [2] was 0.048 ± 0.017^a μmol/g (w.w.) and the “cerebral L-Cystat concentration” value [2] was 0.173 ± 0.038^b,f,i μmol/g (w.w.). For the same substance, the “cerebral LEU concentration” value [2] was 0.018 ± 0.004 µmol/g (w.w.), the “cerebral LYS concentration” value [2] was 0.32 ± 0.04^a,e,i μmol/g (w.w.) and the “cerebral MET concentration” value [2] was 0.022 ± 0.006^b,e,i μmol/g (w.w.). The “cerebral ORN concentration” value [2] was 0.011 ± 0.005 µmol/g (w.w.), the “cerebral PHE concentration” value [2] was 0.028 ± 0.010 µmol/g (w.w.) and the “cerebral SAH concentration” value [2] was 0.026 ± 0.010^f,i μmol/g (w.w.). For the same substance, the “cerebral SER concentration” value [2] was 0.71 ± 0.28^b μmol/g (w.w.), the “cerebral TAU concentration” value [2] was 3.80 ± 1.19 µmol/g (w.w.) and the “cerebral THR concentration” value [2] was 0.66 ± 0.23 µmol/g (w.w.). The “cerebral TRP concentration” value [2] was 0.015 ± 0.006 µmol/g (w.w.), the “cerebral TYR concentration” value [2] was 0.172 ± 0.046^b,f μmol/g (w.w.) and the “cerebral VAL concentration” value [2] was 0.057 ± 0.017 µmol/g (w.w.). The “cerebral ALA concentration” value [3] was 0.57 ± 0.28^a,e μmol/g (w.w.), the “cerebral ARG concentration” value [3] was 0.14 ± 0.02 µmol/g (w.w.) and the “cerebral ASN concentration” value [3] was 0.18 ± 0.02^a μmol/g (w.w.). For the same substance, the “cerebral ASP concentration” value [3] was 4.46 ± 0.70^a,f μmol/g (w.w.), the “cerebral CITR concentration” value [3] was 0.020 ± 0.006 µmol/g (w.w.) and the “cerebral GABA concentration” value [3] was 1.85 ± 0.65^a μmol/g (w.w.). The “cerebral GLN concentration” value [3] was 3.98 ± 0.34 µmol/g (w.w.), the “cerebral GLU concentration” value [3] was 13.58 ± 1.28^a μmol/g (w.w.) and the “cerebral GLY concentration” value [3] was 1.05 ± 0.13^a,f μmol/g (w.w.). The “cerebral HIS concentration” value [3] was 0.047 ± 0.021 µmol/g (w.w.), the “cerebral ILE concentration” value [3] was 0.041 ± 0.016^b μmol/g (w.w.) and the “cerebral L-Cystat concentration” value [3] was 0.26 ± 0.05^a,f μmol/g (w.w.). The “cerebral LEU concentration” value [3] was 0.024 ± 0.032^b,f μmol/g (w.w.), the “cerebral LYS concentration” value [3] was 0.179 ± 0.036 µmol/g (w.w.) and the “cerebral MET concentration” value [3] was 0.009 ± 0.004^b μmol/g (w.w.). The “cerebral ORN concentration” value [3] was 0.017 ± 0.009^a,e μmol/g (w.w.), the “cerebral PHE concentration” value [3] was 0.033 ± 0.011^b μmol/g (w.w.) and the “cerebral SAH concentration” value [3] was 0.050 ± 0.013^a μmol/g (w.w.). The “cerebral SER concentration” value [3] was 0.93 ± 0.27^a,e μmol/g (w.w.), the “cerebral TAU concentration” value [3] was 4.49 ± 0.43^a μmol/g (w.w.) and the “cerebral THR concentration” value [3] was 0.75 ± 0.24^a,e μmol/g (w.w.). For the same substance, the “cerebral TRP concentration” value [3] was 0.012 ± 0.007 µmol/g (w.w.), the “cerebral TYR concentration” value [3] was 0.21 ± 0.05^f μmol/g (w.w.) and the “cerebral VAL concentration” value [3] was 0.040 ± 0.016^b μmol/g (w.w.). The “increase in cerebral glutamate (GLU) induced by sTBI” value (drug administered early post-injury (30 min following sTBI), 15 mg/kg s.c.) was “remarkable inhibition”, the “efficacy on glutamate excitotoxicity marker” value (drug injected at 3 days after sTBI) was “no efficacy” and the “compounds of the methyl cycle (Met, L-Cystat, SAH)” value (rat brain after sTBI, 15 mg/kg s.c.) was “significant beneficial effects”.
